Experimental data: paper PMC12045974, “T cell toxicity induced by tigecycline binding to the mitochondrial ribosome” (Nature Communications, 2025)
“And” between values parts separate entries of the source, which are not always exact repeats. Equal values may be shown once.

Assays:
[1] = tested on: HeLa cells; test: Cell viability assay (CCK-8), HeLa cells; type: cell-based; conditions: for cell vialibity normalized to Vehicle (DMSO): in % (unit assumed)
Description: (§1) Cells were seeded in 96-well plates ranging from 2000 to 15,000 cells per well depending on different cell lines and treated with antibiotics in serial dilutions for 72 h (120 h for the preliminary assays) in a humidified incubator (37 °C, 5% CO2) in 100 μl medium (DMEM with 10% FBS, 2.05 mM L-glutamine (Sigma) for Hek293 and Hela; RPMI-1640 with 10% FBS, 2.05 mM L-glutamine (Sigma), and 55 μM 2-ME (Gibco) for Jurkat T cells and PBMCs). Based on preliminary tests, the number of cells per well was optimized to 2000 for Hela and Hek293, 6000 for Jurkat T cells, and 15,000 for PBMCs. The stocks of antibiotics were prepared by dissolving in DMSO. As control, the same amount of DMSO was added to the non-treated groups. Serial drug dilutions were prepared in the corresponding medium to provide a total of 9 concentrations up to 300 μM for tetracyclines and up to 900 μM for additional bacterial protein synthesis inhibitors. After drug treatment, 10% CCK-8 (Cell Counting Kit-8, Sigma Aldrich) (10 μl per well) of the total volume was added to the cells and incubated for 1–4 h depending on cell lines (1 h for Hela and Hek293; 3 h for Jurkat T cells; 4 h for PBMCs) before the evaluation of the effect of antibiotics on cell viability. […] Results were visually confirmed under the light microscope. Each treatment was performed in technical repeats. Dose-response curves were plotted, mean ± SEM was shown, and half maximal inhibitory concentration (IC50) values were calculated in GraphPad Prism.

[2] = tested on: Jurkat T cells; test: Cell viability assay (CCK-8), Jurkat T cells; type: cell-based, human; conditions: for cell vialibity normalized to Vehicle (DMSO): in % (unit assumed)
Description: as §1

[3] = tested on: mitochondrial translation in CD4+ and CD8+ T cells; test: Mito-FUNCAT-FACS assay of mitochondrial translation on activated T cells; type: cell-based, human; conditions: per PBMC donor, listed as Pos ctrl
Description: Thawed PBMCs were washed with RPMI ( + 10% FBS, 2.05 mM L-glutamine (Sigma), and 55 μM 2-ME (Gibco)) before resting at 37 °C (5% CO2) for 30 min. After counting, cells were resuspended in FACS buffer at a density of 5 × 10^7 cells/ml. T cells were isolated using EasySep™ Human T Cell Isolation Kit (Stemcell Technologies). Purified T cells were counted and 85,000 cells per well seeded onto 96-well U-bottom plates with/without Human T-Activator CD3/CD28 beads (Invitrogen) at a 1:2.8 cell:bead ratio and 10 ng/ml IL-2 (Proteintech) in RPMI-1640 ( + 10% FBS, 2.05 mM L-glutamine (Sigma), and 55 μM 2-ME (Gibco)) for 48 h. To assess mitochondrial translation, activated T cells were washed twice with methionine/cysteine/pyruvate-free DMEM and incubated in methionine-depletion medium (DMEM supplemented with 10% dialyzed FBS, 1× GlutaMAX, 1× sodium pyruvate, and 0.2 mM L-cystine) for 30 min at 37 °C. To inhibit cytosolic translation, anisomycin (100 μg/mL) was added to the medium. For mitochondrial translation inhibition, 100 µg/mL chloramphenicol (309 μM, positive control) or tigecycline (2.5−10 μM) were added to the medium. Cells were then labeled with 50 μM L-homopropargylglycine (HPG) for 3 h at 37 °C, during which time the medium still contained antibiotics.
Following HPG labeling, cells were collected and stained with surface markers (CD4, CD8). Cells were pre-permeabilized with 0.005% digitonin in mitochondria-protective buffer (10 mM HEPES/KOH, 10 mM NaCl, 5 mM MgCl2, 300 mM sucrose, pH 7.5) for 3 min, fixed with 4% paraformaldehyde for 10 min, and fully permeabilized with 0.25% Triton X-100 for 5 min. After blocking with 5% BSA for 10 min, incorporated HPG was detected via copper-catalyzed cycloaddition using 0.05 μM Alexa Fluor 488 picolyl azide (Click-iT™ Plus Alexa Fluor™ 488 Picolyl Azide Toolkit, Gibco) for 30 min at room temperature. Subsequently, the reaction cocktail was removed and cells resuspended in FACS buffer. Flow cytometry was carried out on a BD Celesta (BD Biosciences) and analyzed in FlowJo (TreeStar). Data are presented as fold change relative to negative controls.

## O=C(N[C@H](CO)[C@H](O)c1ccc([N+](=O)[O-])cc1)C(Cl)Cl [Chloramphenicol, chloramphenicol]
[1]; Hela 3d, dose 1 μM
  cell vialibity normalized to Vehicle (DMSO): 115.472 and 112.907 and 109.149 and 106.395 and 107.336
[1]; Hela 3d, dose 5 μM
  cell vialibity normalized to Vehicle (DMSO): 99.7977 and 98.9686 and 95.4348 and 95.1889 and 93.3131
[1]; Hela 3d, dose 10 μM
  cell vialibity normalized to Vehicle (DMSO): 85.1565 and 78.1239 and 77.2387 and 77.1403 and 78.8686
[1]; Hela 3d, dose 100 μM
  cell vialibity normalized to Vehicle (DMSO): 10.3486 and 10.3064 and 10.2994 and 10.5805
[1]; Hela 5d, dose 1 μM
  cell vialibity normalized to Vehicle (DMSO): 101.268 and 103.029 and 103.952 and 106.316 and 104.379
[1]; Hela 5d, dose 5 μM
  cell vialibity normalized to Vehicle (DMSO): 96.435 and 103.217 and 108.966 and 107.207 and 102.082
[1]; Hela 5d, dose 10 μM
  cell vialibity normalized to Vehicle (DMSO): 98.7408 and 101.357 and 94.3137 and 101.415 and 97.4373
[1]; Hela 5d, dose 50 μM
  cell vialibity normalized to Vehicle (DMSO): 38.8993 and 53.367 and 28.3728 and 27.4352 and 29.5718
[1]; Hela 5d, dose 100 μM
  cell vialibity normalized to Vehicle (DMSO): 5.6014 and 6.201 and 5.26 and 4.947 and 5.042
[1]; Homo sapiens, 120 h, HeLa, after 5 days, read-out: IC50 (cell survival)
  IC50: 41.7 µM
[2]; Homo sapiens, 120 h, Jurkat T cells, after 5 days, read-out: IC50 (cell survival)
  IC50: 25.9 µM
[2]; Jurkat 3d, dose 1 μM
  cell vialibity normalized to Vehicle (DMSO): 91.6279 and 94.5323 and 104.434 and 103.886 and 105.55
[2]; Jurkat 3d, dose 5 μM
  cell vialibity normalized to Vehicle (DMSO): 74.0465 and 84.1447 and 84.7132 and 88.5271 and 87.2868
[2]; Jurkat 3d, dose 10 μM
  cell vialibity normalized to Vehicle (DMSO): 63.1628 and 61.0232 and 47.7623 and 47.907 and 61.2196
[2]; Jurkat 3d, dose 50 μM
  cell vialibity normalized to Vehicle (DMSO): 13.1266 and 12.4444 and 12.0827 and 12.6408 and 12.4548
[2]; Jurkat 3d, dose 100 μM
  cell vialibity normalized to Vehicle (DMSO): 11.7933 and 11.4419 and 11.2455 and 11.1111 and 11.3282
[2]; Jurkat 5d, dose 1 μM
  cell vialibity normalized to Vehicle (DMSO): 106.953 and 119.838 and 129.235 and 117.806 and 137.373
[2]; Jurkat 5d, dose 5 μM
  cell vialibity normalized to Vehicle (DMSO): 116.039 and 104.909 and 120.616 and 122.485 and 146.087
[2]; Jurkat 5d, dose 10 μM
  cell vialibity normalized to Vehicle (DMSO): 103.365 and 68.172 and 100.846 and 74.0691 and 124.665
[2]; Jurkat 5d, dose 50 μM
  cell vialibity normalized to Vehicle (DMSO): 10.0745 and 7.603 and 8.334 and 7.062 and 9.025
[2]; Jurkat 5d, dose 100 μM
  cell vialibity normalized to Vehicle (DMSO): 7.529 and 7.5694 and 7.36 and 6.913 and 8.592
[3]; CD4, positive control 309 μM
  mitochondrial translation (fold change relative to negative control): 0.3672 and 0.3419 and 0.3517 and 0.3014
[3]; CD8, positive control 309 μM
  mitochondrial translation (fold change relative to negative control): 0.3783 and 0.3616 and 0.3857 and 0.2719
